Measured values as given in ChEMBL document CHEMBL4011597, “Synthesis, screening and docking of fused pyrano[3,2-d]pyrimidine derivatives as xanthine oxidase inhibitor” (Eur J Med Chem, 2017).
pIC50: −log10 of the molar value.

target: T1, Xanthine dehydrogenase/oxidase (Bos taurus, UniProt P80457); assay: Inhibition of bovine xanthine oxidase assessed as reduction in uric acid formation at 100 uM using xanthine as substrate pretreated for 5 mins followed by substrate addition measured by UV-vis spectrophotometric method relative to control; details: cattle
T1 sequence (P80457 whole entry): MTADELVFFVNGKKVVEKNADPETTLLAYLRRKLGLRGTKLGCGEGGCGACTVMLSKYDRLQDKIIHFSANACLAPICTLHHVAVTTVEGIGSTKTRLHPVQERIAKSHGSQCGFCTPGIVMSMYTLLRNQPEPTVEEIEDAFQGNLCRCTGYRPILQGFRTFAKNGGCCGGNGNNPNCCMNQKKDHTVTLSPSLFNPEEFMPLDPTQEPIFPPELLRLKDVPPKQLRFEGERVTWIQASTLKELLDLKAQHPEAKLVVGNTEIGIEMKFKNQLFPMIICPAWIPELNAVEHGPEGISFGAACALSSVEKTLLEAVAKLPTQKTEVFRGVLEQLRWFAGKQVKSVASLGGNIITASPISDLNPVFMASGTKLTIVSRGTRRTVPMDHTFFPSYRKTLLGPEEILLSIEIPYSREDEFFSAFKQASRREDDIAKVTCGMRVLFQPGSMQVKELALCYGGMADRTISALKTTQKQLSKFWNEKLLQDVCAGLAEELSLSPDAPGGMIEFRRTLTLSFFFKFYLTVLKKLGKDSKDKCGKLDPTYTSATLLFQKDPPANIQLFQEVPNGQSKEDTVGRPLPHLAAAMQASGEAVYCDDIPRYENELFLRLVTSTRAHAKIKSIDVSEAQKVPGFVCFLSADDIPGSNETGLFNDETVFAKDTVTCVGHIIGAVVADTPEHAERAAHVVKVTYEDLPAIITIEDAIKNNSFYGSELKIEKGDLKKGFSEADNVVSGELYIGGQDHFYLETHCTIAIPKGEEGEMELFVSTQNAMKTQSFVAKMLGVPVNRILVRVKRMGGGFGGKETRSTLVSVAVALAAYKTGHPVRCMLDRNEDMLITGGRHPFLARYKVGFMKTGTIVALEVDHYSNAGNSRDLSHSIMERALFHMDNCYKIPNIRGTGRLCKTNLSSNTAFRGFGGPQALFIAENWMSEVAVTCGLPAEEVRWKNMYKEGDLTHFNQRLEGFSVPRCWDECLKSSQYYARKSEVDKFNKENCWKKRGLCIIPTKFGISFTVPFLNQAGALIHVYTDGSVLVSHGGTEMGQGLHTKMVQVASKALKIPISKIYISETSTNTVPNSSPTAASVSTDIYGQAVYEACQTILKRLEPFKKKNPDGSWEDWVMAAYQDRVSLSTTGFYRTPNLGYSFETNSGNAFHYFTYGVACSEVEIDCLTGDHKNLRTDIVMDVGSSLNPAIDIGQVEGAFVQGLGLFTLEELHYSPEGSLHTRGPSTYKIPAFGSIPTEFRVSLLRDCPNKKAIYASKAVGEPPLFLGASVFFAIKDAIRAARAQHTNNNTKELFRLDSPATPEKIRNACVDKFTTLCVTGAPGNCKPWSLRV

Row | SMILES | inhibition at 100 µM [%]
1 | COc1ccc(Nc2ncnc3c2C(c2cc(OC)c(OC)c(OC)c2)c2c(n[nH]c2C)O3)cc1 (stereo not given) | 47.9
2 | COc1ccc(Nc2ncnc3c2C(c2ccc(OC)cc2)c2c(c(=O)oc4ccccc24)O3)cc1 (stereo not given) | 85.3
3 | COc1ccc(Nc2ncnc3c2C(c2cccc([N+](=O)[O-])c2)c2c(ccc4ccccc24)O3)cc1 (stereo not given) | 13.3
4 | COc1ccc(Nc2ncnc3c2C(c2cc4ccccc4[nH]2)c2c(n[nH]c2C)O3)cc1 (stereo not given) | 11.2
5 | COc1ccc(Nc2ncnc3c2C(c2ccccc2OC)c2c(ccc4ccccc24)O3)cc1 (stereo not given) | 30.1
6 | COc1ccc(Nc2ncnc3c2C(c2cccs2)c2c(n[nH]c2C)O3)cc1 (stereo not given) | 19.8
7 | COc1ccc(Nc2ncnc3c2C(c2ccc(Cl)cc2)c2c(ccc4ccccc24)O3)cc1 (stereo not given) | 17.2
8 | COc1ccc(Nc2ncnc3c2C(c2ccc(O)c(OC)c2)c2c(ccc4ccccc24)O3)cc1 (stereo not given) | 33.8
9 | COc1ccc(Nc2ncnc3c2C(c2ccc(F)cc2)c2c(ccc4ccccc24)O3)cc1 (stereo not given) | 19.6
10 | COc1ccc(Nc2ncnc3c2C(c2ccncc2)C2=C(CCCC2=O)O3)cc1 (stereo not given) | 46
11 | COc1ccc(Nc2ncnc3c2C(c2cccc(C)c2)c2c(ccc4ccccc24)O3)cc1 (stereo not given) | 22.6
12 | COc1ccc(Nc2ncnc3c2C(c2ccc(Cl)cc2)c2ccc4ccccc4c2O3)cc1 (stereo not given) | 16.7
13 | COc1ccc(Nc2ncnc3c2C(c2ccccc2OC)c2c(n[nH]c2C)O3)cc1 (stereo not given) | 55.2
14 | COc1ccc(Nc2ncnc3c2C(c2ccc(OC)cc2)c2ccc4ccccc4c2O3)cc1 (stereo not given) | 31.1
15 | COc1ccc(Nc2ncnc3c2C(c2ccc(O)cc2)c2ccc4ccccc4c2O3)cc1 (stereo not given) | 28.6
16 | COc1ccc(Nc2ncnc3c2C(c2ccc(OC)cc2)c2c(ccc4ccccc24)O3)cc1 (stereo not given) | 32.6
17 | COc1ccc(Nc2ncnc3c2C(c2ccccc2)c2ccc4ccccc4c2O3)cc1 (stereo not given) | 20.5
18 | COc1ccc(Nc2ncnc3c2C(c2ccc(Br)cc2)c2c(n[nH]c2C)O3)cc1 (stereo not given) | 30.3

Row | SMILES | inhibition at 100 µM [%]
19 | COc1ccc(Nc2ncnc3c2C(c2cccc([N+](=O)[O-])c2)c2c(n[nH]c2C)O3)cc1 (stereo not given) | 28.9
20 | COc1ccc(Nc2ncnc3c2C(c2cccc(Cl)c2)c2ccc4ccccc4c2O3)cc1 (stereo not given) | 17.1
21 | COc1ccc(Nc2ncnc3c2C(c2cccc(Cl)c2)c2c(ccc4ccccc24)O3)cc1 (stereo not given) | 17.6
22 | COc1ccc(Nc2ncnc3c2C(c2ccc(O)c(OC)c2)c2ccc4ccccc4c2O3)cc1 (stereo not given) | 33.2
23 | COc1ccc(Nc2ncnc3c2C(c2ccncc2)c2c(n[nH]c2C)O3)cc1 (stereo not given) | 15.1
24 | COc1ccc(Nc2ncnc3c2C(c2ccc(F)cc2)c2c(n[nH]c2C)O3)cc1 (stereo not given) | 35.7
25 | COc1ccc(Nc2ncnc3c2C(c2cccc(O)c2)c2c(n[nH]c2C)O3)cc1 (stereo not given) | 50.1
26 | COc1ccc(Nc2ncnc3c2C(c2cccc(O)c2)c2ccc4ccccc4c2O3)cc1 (stereo not given) | 27.4
27 | COc1ccc(Nc2ncnc3c2C(c2cccc(C)c2)c2c(n[nH]c2C)O3)cc1 (stereo not given) | 43.6
28 | COc1ccc(Nc2ncnc3c2C(c2cc4ccccc4[nH]2)c2c(c(=O)oc4ccccc24)O3)cc1 (stereo not given) | 18.4
29 | COc1ccc(Nc2ncnc3c2C(c2cccc4ccccc24)c2c(c(=O)oc4ccccc24)O3)cc1 (stereo not given) | 10
30 | COc1ccc(Nc2ncnc3c2C(c2ccncc2)c2c(c(=O)oc4ccccc24)O3)cc1 (stereo not given) | 45.1
31 | COc1ccc(Nc2ncnc3c2C(c2ccc(OC)c(OC)c2)c2c(ccc4ccccc24)O3)cc1 (stereo not given) | 39.4
32 | COc1ccc(Nc2ncnc3c2C(c2cccc4ccccc24)c2c(n[nH]c2C)O3)cc1 (stereo not given) | 10.1
33 | COc1ccc(Nc2ncnc3c2C(c2cccc4ccccc24)C2=C(CCCC2=O)O3)cc1 (stereo not given) | 12.1
34 | COc1ccc(Nc2ncnc3c2C(c2ccc(Cl)cc2)c2c(n[nH]c2C)O3)cc1 (stereo not given) | 32.2
35 | COc1ccc(Nc2ncnc3c2C(c2ccc([N+](=O)[O-])cc2)c2c(ccc4ccccc24)O3)cc1 (stereo not given) | 11
36 | COc1ccc(Nc2ncnc3c2C(c2ccc(O)c(O)c2)c2c(ccc4ccccc24)O3)cc1 (stereo not given) | 37.2

target: T1, Xanthine dehydrogenase/oxidase; assay: Inhibition of bovine xanthine oxidase assessed as reduction in uric acid formation at 1 uM using xanthine as substrate pretreated for 5 mins followed by substrate addition measured by UV-vis spectrophotometric method relative to control; details: cattle

Row | SMILES | inhibition at 1 µM [%]
37 | COc1ccc(Nc2ncnc3c2C(c2ccc(OC)cc2)c2c(c(=O)oc4ccccc24)O3)cc1 (stereo not given) | 32.4

target: T1, Xanthine dehydrogenase/oxidase; assay: Inhibition of bovine xanthine oxidase assessed as reduction in uric acid formation using xanthine as substrate pretreated for 5 mins followed by substrate addition measured by UV-vis spectrophotometric method; details: not given

Row | SMILES | pIC50
38 | COc1ccc(Nc2ncnc3c2C(c2ccc(OC)cc2)c2c(c(=O)oc4ccccc24)O3)cc1 (stereo not given) | 4.62
39 | O=c1cc(-c2ccc(O)cc2)oc2cc(O)cc(O)c12 [APIGENIN] | 4.99

target: T1, Xanthine dehydrogenase/oxidase; assay: Inhibition of bovine xanthine oxidase assessed as reduction in uric acid formation at 10 uM using xanthine as substrate pretreated for 5 mins followed by substrate addition measured by UV-vis spectrophotometric method relative to control; details: cattle

Row | SMILES | inhibition at 10 µM [%]
40 | COc1ccc(Nc2ncnc3c2C(c2ccc(OC)cc2)c2c(c(=O)oc4ccccc24)O3)cc1 (stereo not given) | 43.7
